From publication PMC12006171, “Marsupial cathelicidins: characterization, antimicrobial activity and evolution in this unique mammalian lineage” (Frontiers in Immunology, 2025) come the findings set out here.

Holding throughout (assay): microbe, parasite or virus in culture
Assay type in all cases: cell-based

Experiment [1] relates to Escherichia coli ATCC 25922. In short, it runs like this:
(§1)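 Each isolate was exposed to twofold peptide dilutions (final 64-0.125μg/mL) in Mueller Hinton broth, optionally supplemented with calcium and magnesium or 10% lysed horse blood. The MIC was taken as the lowest concentration lacking visible growth after 20–24 hours at 35°C.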

Experiment [2] relates to Escherichia coli clinical isolate - animal. In short, it runs like this: as §1
Experiment [3] concerns Staphylococcus aureus ATCC 29213. In short, it runs like this: as §1
Experiment [4] has as its system Staphylococcus aureus clinical isolate - animal. In short, it runs like this: as §1
Experiment [5] relates to Streptococcus agalactiae ATCC 12386. The conditions noted are these: read-out: MIC S. agalactiae ATCC. On the procedure: (§2) Antimicrobial testing of 78 cathelicidin MPs was performed in two phases as outlined in Figure 1 . In phase I, 40 peptides (27 extant and 13 ancestral) were selected for testing based on rank (outlined above) and similarity to published marsupial cathelicidins with known antimicrobial activity ([33], [41]–[43]). These peptides were tested against nine bacteria (Staphylococcus aureus ATCC 29213 and clinical isolate, Escherichia coli ATCC 25922 and clinical isolate, Pseudomonas aeruginosa ATCC 27853 and clinical isolate, Streptococcus agalactiae ATCC 12386 and clinical isolate, Streptococcus pneumoniae ATCC 49619) and three fungi (Candida krusei ATCC 6258, Candida parapsilosis ATCC 22019, and Candida albicans clinical isolate). Details regarding these strains are available in Supplementary Table 4 . The antimicrobial activity of cathelicidins was determined as the minimum inhibitory concentration (MIC), which was the lowest concentration of cathelicidin that prevented visible bacterial or fungal growth, relative to the negative control. […] Minimum bactericidal concentration (MBC) and/or minimum fungicidal concentration (MFC) was conducted to determine microbicidal versus static action. Activity against S. aureus ATCC, E. coli ATCC, and Pseudomonas aeruginosa ATCC 27853 was examined in the presence of divalent cations to determine the impact of inhibitors.
(§3) Antimicrobial activity was determined using a broth microdilution susceptibility assay in 96 well polypropylene plates according to Clinical Laboratory Standards Institute guidelines M07-A and M26A as described previously ([33], [42], [43]). The bacterial and fungal isolates from humans and animals used in this study are outlined in Supplementary Table 4 . Only yeasts were included in the panel of fungi as they have been used in the susceptibility testing of eutherian ([3], [81]–[83]) and other marsupial cathelicidins previously ([33], [42], [43]). Cathelicidin mature peptides were solubilized in DMSO and serially diluted in duplicate from 128-0.25μg/mL in a final volume of 100µL. For bacteria, cathelicidins were diluted in Mueller Hinton Broth (MHB) with or without 10% lysed horse blood, and with (MH II B) or without (MHB) calcium and magnesium cations. For fungi, cathelicidins were diluted in Roswell Park Memorial Institute medium (RPMI)-1640 MOPS. Ampicillin or tetracycline were included as a positive control for Gram-positive and -negative bacteria respectively, while amphotericin B was used for fungi. A media-only negative control and growth control (no cathelicidin) were also included on each plate. Bacteria were sub-cultured on Muller Hinton agar (MHA) or sheep blood agar (BA), and fungi on Sabouraud dextrose agar (SAB), 20–24 hours prior to the test. Colonies were suspended in saline, the concentration adjusted to a 0.5 McFarland standard, and then diluted in media to a concentration of 1.0 x 10^6 cells/mL. Then, 100μL was added to each well of the cathelicidin dilution plate, giving a final inoculum density of 5 x 10^5 CFU/mL and cathelicidin concentration of 64-0.125μg/mL. Colony counts were performed on MHA/BA/SAB to confirm inoculum density. All plates were incubated at 35°C for 20–24 hours, depending on the strain.
(§4) Colonies were counted and compared to the colony count of the starting inoculum.

For experiment [6], the system named is Streptococcus agalactiae Clinical isolate - animal. The conditions noted are these: read-out: MIC S. agalactiae. On the procedure: as §2, §3, §4
Experiment [7] has as its system Streptococcus pneumoniae ATCC 49619. Particulars: read-out: MIC S. pneumoniae ATCC. As to the method: as §2, §3, §4
In experiment [8] the test system is Pseudomonas aeruginosa clinical isolate - animal. The conditions noted are these: clinical isolate - animal; read-out: MIC P. aeruginosa. In short, it runs like this: as §1
In experiment [9] the test system is Pseudomonas aeruginosa ATCC 27853. Particulars: ATCC 27853; read-out: MIC P. aeruginosa ATCC. In short, it runs like this: as §1
The mark [10] stands for this setting: ATCC 29213, read-out: MIC S. aureus ATCC.
The mark [11] stands for this setting: clinical isolate - animal, read-out: MIC S. aureus.

In brackets after ≈: the same amount, converted by molar mass. Where two headings read alike, the source gives them in different places. Where a SMILES comes first, the peptide text is derived from it.

Turning to `CC1(C)S[C@@H]2[C@H](NC(=O)[C@H](N)c3ccccc3)C(=O)N2[C@H]1C(=O)O` [Ampicillin, reference compound], the MIC in [1] (Escherichia coli, ATCC25922, MHB without cations, 5 x 10^5 CFU/mL, 35°C 20–24 hours, duplicate, read-out: MIC E. coli ATCC) was 4 µg/mL; in experiment [1] (Escherichia coli, ATCC25922, superscript value, cation-adjusted Mueller Hinton broth, read-out: MIC in the presence of cations E. coli ATCC) it was 8 µg/mL; in experiment [1] (Escherichia coli, ATCC25922, superscript value, cation-adjusted Mueller Hinton broth, µM equivalent, read-out: MIC in the presence of cations E. coli ATCC), 22.8 µM; in experiment [1] (Escherichia coli, ATCC25922, µM equivalent of Table 3, read-out: MIC E. coli ATCC), 11.4 µM; in [2] (Escherichia coli, clinical isolate, MHB without cations, 5 x 10^5 CFU/mL, 35°C 20–24 hours, duplicate), more than 64 µg/mL; in experiment [2] (Escherichia coli, clinical isolate, µM equivalent of Table 3), more than 183 µM. Besides, the MIC is 1 µg/mL in [3] (Staphylococcus aureus, ATCC29213, MHB without cations, 5 x 10^5 CFU/mL, 35°C 20–24 hours, duplicate, 64-0.125μg/mL, read-out: MIC S. aureus ATCC); 2 µg/mL in experiment [3] (Staphylococcus aureus, ATCC29213, superscript value, cation-adjusted Mueller Hinton broth (calcium and magnesium), read-out: MIC in the presence of cations S. aureus ATCC); 5.7 µM in experiment [3] (Staphylococcus aureus, ATCC29213, superscript value, cation-adjusted Mueller Hinton broth, µM equivalent of Table 3, read-out: MIC in the presence of cations S. aureus ATCC); 2.8 µM in experiment [3] (Staphylococcus aureus, ATCC29213, µM equivalent of Table 3, read-out: MIC S. aureus ATCC); 0.25 µg/mL in experiment [4] (Staphylococcus aureus, clinical isolate, MHB without cations, 5 x 10^5 CFU/mL, 35°C 20–24 hours, duplicate, read-out: MIC S. aureus); 0.25 µg/mL in experiment [4] (Staphylococcus aureus, clinical isolate, superscript value, cation-adjusted Mueller Hinton broth, read-out: MIC in the presence of cations S. aureus). For the same compound, the MIC in experiment [4] (Staphylococcus aureus, clinical isolate, superscript value, cation-adjusted Mueller Hinton broth, µM equivalent, read-out: MIC in the presence of cations S. aureus) turned out to be 0.7 µM; in experiment [4] (Staphylococcus aureus, clinical isolate, µM equivalent of Table 3, read-out: MIC S. aureus), 0.7 µM; in experiment [5] (Streptococcus agalactiae, ATCC12386, phase I peptides only, 5 x 10^5 CFU/mL, 35°C 20–24 hours, duplicate), 0.25 µg/mL; in experiment [5] (Streptococcus agalactiae, ATCC12386, µM equivalent of Table 3), 0.7 µM; in [6] (Streptococcus agalactiae, clinical isolate, phase I peptides only, 5 x 10^5 CFU/mL, 35°C 20–24 hours, duplicate), 0.25 µg/mL; in [6] (Streptococcus agalactiae, clinical isolate, µM equivalent of Table 3), 0.7 µM. Also, the MIC in experiment [7] (Streptococcus pneumoniae, ATCC49619, phase I peptides only, 5 x 10^5 CFU/mL, 35°C 20–24 hours, duplicate) is more than 64 µg/mL; in experiment [7] (Streptococcus pneumoniae, ATCC49619, µM equivalent of Table 3), more than 183 µM.
Consider `CC[C@H](C)[C@H](NC(=O)[C@H](CCCCN)NC(=O)[C@H](CC(C)C)NC(=O)CNC(=O)[C@H](CC(N)=O)NC(=O)[C@@H](NC(=O)[C@H](CCCNC(=N)N)NC(=O)[C@H](CCCNC(=N)N)NC(=O)[C@H](CCCNC(=N)N)NC(=O)[C@@H](NC(=O)[C@H](CO)NC(=O)[C@H](CC(N)=O)NC(=O)[C@H](CCCNC(=N)N)NC(=O)[C@H](CC(C)C)NC(=O)[C@H](CCCCN)NC(=O)[C@H](CCCCN)NC(=O)[C@H](C)NC(=O)[C@H](CCCCN)NC(=O)[C@H](CCC(=O)O)NC(=O)[C@H](CCCCN)NC(=O)[C@@H](NC(=O)[C@@H](NC(=O)[C@H](CC(=O)O)NC(=O)[C@H](Cc1c[nH]c2ccccc12)NC(=O)[C@H](CC(C)C)NC(=O)CNC(=O)[C@H](CCCNC(=N)N)NC(=O)[C@@H](N)CCCCN)[C@@H](C)O)C(C)C)[C@@H](C)CC)C(C)C)C(=O)NCC(=O)N[C@@H](C)C(=O)N[C@@H](C)C(=O)N[C@@H](CC(=O)O)C(=O)N[C@@H](CCC(N)=O)C(=O)N[C@H](C(=O)N1CCC[C@H]1C(=O)NCC(=O)N[C@@H](Cc1c[nH]cn1)C(=O)N[C@@H](CO)C(=O)N[C@@H](CC(C)C)C(=O)O)C(C)C` [LahiCath4] (H-KRGLWDTVKEKAKKLRNSIRRRVNGLKIGAADQVPGHSL-OH), for which the “MBC E. coli ATCC” value in experiment [1] (ATCC 25922) was found to be 14.5 µM (≈ 63.8 µg/mL). Moreover, the MIC in experiment [1] (ATCC 25922, read-out: MIC E. coli ATCC) is listed as 7.2 µM; in [1] (ATCC 25922, read-out: MIC in the presence of cations E. coli ATCC), 14.5 µM; in experiment [2] (clinical isolate - animal), 3.6 µM; in experiment [3] (setting [10]) it was more than 14.5 µM; in experiment [8], more than 14.5 µM; in experiment [4] (setting [11]), more than 14.5 µM. Besides, the MIC in experiment [9], in experiment [5] (ATCC 12386), in experiment [6] (clinical isolate - animal) and in [7] (ATCC 49619) was more than 14.5 µM throughout. In addition, the “MBC E. coli” value in experiment [2] (clinical isolate - animal) is 14.5 µM (≈ 63.8 µg/mL). Besides, in experiment [2] (clinical isolate - animal), the “MIC in the presence of cations E. coli” value is listed as 14.5 µM.
As for `CC[C@H](C)[C@H](NC(=O)[C@H](CC(=O)O)NC(=O)[C@H](CCCNC(=N)N)NC(=O)[C@H](CC(C)C)NC(=O)[C@H](CCCCN)NC(=O)[C@H](CCCNC(=N)N)NC(=O)[C@H](Cc1ccc(O)cc1)NC(=O)[C@H](CCCCN)NC(=O)[C@H](CCC(=O)O)NC(=O)[C@H](CC(C)C)NC(=O)[C@H](CC(C)C)NC(=O)[C@@H](NC(=O)[C@H](CCCNC(=N)N)NC(=O)[C@H](Cc1ccc(O)cc1)NC(=O)[C@H](CCCCN)NC(=O)[C@H](CCC(N)=O)NC(=O)[C@H](Cc1ccc(O)cc1)NC(=O)[C@@H](NC(=O)[C@H](CC(C)C)NC(=O)[C@@H](N)CC(N)=O)[C@@H](C)CC)[C@@H](C)CC)C(=O)N[C@@H](Cc1ccccc1)C(=O)N[C@@H](CO)C(=O)NCC(=O)O` [MAP6] (H-NLIYQKYRILLEKYRKLRDIFSG-OH), the “MBC E. coli ATCC” value in experiment [1] (ATCC 25922) was 10.9 (10.9)^10.9 µM. Moreover, the “MIC E. coli ATCC” value in experiment [1] (ATCC 25922) is 10.9 (10.9)^10.9 µM. In [1] (ATCC 25922), the “MIC in the presence of cations E. coli ATCC” value is given as 10.9 (10.9)^10.9 µM. Further, in [2] (clinical isolate - animal), the “MBC E. coli” value is 10.9 (10.9)^10.9 µM. Moreover, the “MIC E. coli” value in experiment [2] (clinical isolate - animal) is on record as 10.9 (10.9)^10.9 µM. Moreover, in experiment [2] (clinical isolate - animal), the “MIC in the presence of cations E. coli” value is listed as 10.9 (10.9)^10.9 µM. For the same compound, the MIC in experiment [3] (setting [10]), in [8], in [4] (setting [11]), in [9], in [5] (ATCC 12386) and in experiment [6] (clinical isolate - animal) was more than 21.8 µM throughout. The MIC in experiment [7] (ATCC 49619) is given as more than 21.8 µM.
